We go through 7 molecules from patent US20110046120A1, “TREATMENT OF IMPULSE CONTROL DISORDERS” (Mclean Hospital Corporation, priority 2006, published 2011).

SMILES strings stand for the structures.

One data set deals with α2 adrenoceptor. Conditions: cited from earlier work; for effect on yohimbine's effects: α2 agonists, Ghitza et al, 2005, Le et al, Lee et al, 2004.
Data set [1] has as its system cocaine-dependent individuals. In words: self-rated subjective responses after intravenous cortisol, cocaine and saline in cocaine dependence. The class given is in vivo, human. On the procedure: To assess cocaine/stress cross-sensitization, 12 cocaine-dependent individuals (age: 39.8±3.5 years) were administered cortisol (0.2 and 0.5 mg/kg), along with cocaine (0.2 mg/kg) and saline via intravenous boluses, in a double-blind, counterbalanced fashion. The individualized description of subjective responses were categorized into four components: craving, high, rush, and low, which were self-rated on a computerized continuous scale of 0 (none) to 3 (extreme) each minute for two minutes prior and 20 minutes following each infusion. Cocaine craving was proactively defined with the subject, clinically as an urge to use the drug and operationally in terms of the action the individual wanted to engage in to get cocaine. The ratings for high (well-being, self-confidence, and sociability), rush (perception of elevated heart rate and sweating, along with sensations of ‘speeding’), and low (dysphoric affect distinct from the high experience diminishment) were subjectively defined and not necessarily associated with a behavioral response or with the planning of physical activity. […] Cocaine elevated measures of craving (p<0.001); high (p<0.02); rush (p<10-4); and low (p=0.05). Saline produced no significant ratings changes.

For data set [2] the following is noted: Guthrie et al, 1990; cited from earlier work.
The subject of data set [3] is healthy subjects and neuropsychiatric patients. Conditions: cited from earlier work.
For data set [4], the system named is NAc and other stress-associated regions. In words: monetary reward task with fMRI in PG subjects given yohimbine. The class given is in vivo, human. Conditions: vs PG subjects given saline and normal controls. Here is the method: During the gambling paradigm, subjects participated in a game of chance where they actually won or lost money while in the fMRI scanner. Signal changes that anticipate or accompany monetary gains and losses under varying conditions of controlled expectation were evaluated. Specifically, evaluated were: a) an “expectancy phase”, when a promising or unpromising roulette-like spinner (FIG. 4) is presented and b) an “outcome phase” when the arrow lands on one sector of that spinner, and thereby alters the subjects' winnings. It is known that, when applied to healthy controls, this task differentiates the fMRI time courses in the NAc, mPFC and SLEA and in related regions during expectancy vs. outcome phases.
At the start of the game, each subject was given an endowment of $50 and was told that (s)he might lose some or all of this stake, retain it or increase it. Each trial consisted of a “prospect phase”, when a spinner was presented and an “outcome phase” when a sector of the spinner was selected by the arrow and a corresponding amount was added to or subtracted from the subjects' winnings. […] The display was static for the first 0.5 second and then a superimposed arrow began to rotate. […] Only results of the last 18 trials were scored for each run since the initial trial was inserted into the run sequence purely to maintain counterbalancing. […]

Data set [5] deals with reward circuitry. In words: cardiac gated fMRI BOLD imaging during cocaine infusion. The class given is in vivo, human. Conditions: cocaine HCl 0.6 mg/kg infusion (max 40 mg), vs pre-infusion baseline, count out of 7 cocaine-dependent subjects. From the text:
We imaged reward circuitry in humans during cocaine infusion, using cardiac gated fMRI BOLD imaging to compensate for brainstem motion. We further used a clustered volume acquisition with sharpened slice profiles to cluster the acquisition of the brainstem volume and thus reduce the effects of imaging noise on cocaine-induced euphoria and craving. Eleven right-handed men (34±7 years old) with the DSM-IV diagnosis of cocaine dependence were studied. During imaging, subjects underwent a randomized double-blind infusion of either cocaine HCl (0.6 mg/kg up to maximum dose of 40 mg) or saline. Subjects were scanned on an Instascan device (1.5 T General Electric Signa; modified by Advanced NMR Systems, Wilmington, Mass.) using a head coil (General Electric). […] Automated shimming with second order shims was performed to improve Bo field homogeneity. Functional scans utilized cardiac gating with an asymmetric spin echo, T2*-weighted CVA (TR=6 RR, three slices per each of the first two RRs; TE=70; offset=−25 ms; 128×64 matrix; thickness=3.12×3.12 mm, through-plane resolution=7 mm; 200 images/slice). […] Seven matched sets of cocaine and saline infusion scans were interpretable after motion-correction. Statistical maps were constructed using Kolmogorov-Smirnov (KS) statistics and thresholded at the corrected p value for brain regions sampled, p<10-5. […]

The test system of data set [6] is reward circuitry. As to the kind of experiment: fMRI with cardiac gating during low-dose morphine infusions. On the procedure:
Normal human reward circuitry was studied during low-dose morphine infusions using fMRI with cardiac gating in an unblinded study. […] Morphine and saline infusions were counter-balanced across subjects, and segregated in separate scan sessions 7 days apart. Four 2 mL infusions were given over 8 minutes, with each infusion lasting 20 seconds. The onset of each infusion was separated by a 2-minute interval. The total morphine dose divided evenly over the 4 infusions was 4 mg/70 kg. Respiratory rate, heart rate, O2 saturation, and end-tidal carbon dioxide concentration in the expired air (ETCO2) were monitored during the experiment in each individual for safety. Subjects were asked to rate their subjective high on a 10-point hedonic rating scale (0=no high; 10=max. high imaginable).

[7] abbreviates: morphine 4 mg/70 kg total, 5 subjects.

With `Clc1cccc(Cl)c1N=C1NCCN1` [clonidine], the “effect on yohimbine's effects” value with α2 adrenoceptor is recorded as “blockade of yohimbine's effects”.
In the case of `CCS(=O)(=O)N1CCC[C@@H]2CN3CCc4cc(OC)ccc4[C@@H]3C[C@@H]21.Cl` [RS-79948-197], the “reproduction of yohimbine's effects” value in the data set on α2 adrenoceptor (selective α2 adrenoceptor antagonist, literature) is reported as “replication of these effects”.
For the molecule `C[C@]12CCC(=O)C=C1CC[C@@H]1[C@@H]2[C@@H](O)C[C@@]2(C)[C@H]1CC[C@]2(O)C(=O)CO` [cortisol], in data set [1] (cortisol 0.2 and 0.5 mg/kg iv bolus, F=3.11, p<0.001), the “craving self-rating, time effect” value is on record as “significant increases in craving”. Moreover, the “craving self-rating, dose effect” value in data set [1] (cortisol 0.2 vs 0.5 mg/kg iv, F=0.06, p=0.81) is given as “no dose effect”.
For the molecule `COC(=O)[C@@H]1[C@H]2C[C@H]3c4[nH]c5ccccc5c4CCN3C[C@@H]2CC[C@@H]1O` [yohimbine], in data set [2], the half-life entry is “about 45 minutes”. In addition, the tolerability entry in data set [3] (yohimbine 0.125 mg/kg to 0.4 mg/kg intravenous) is recorded as “generally well tolerated”. Moreover, the “reported adverse effects in clinical trials” value in data set [3] (yohimbine clinical trials) was “elevated blood pressure and heart rate, psychomotor agitation, irritability, tremor, headaches, skin flushing, dizziness, urinary frequency, nausea, vomiting and perspiration”. Further, in data set [3] (yohimbine infusions 0.4 mg/kg, ten PTSD subjects vs matched healthy controls, associated with increased anxiety self-reports), the “PET brain activity in PTSD subjects” value is “deactivations in prefrontal, temporal, parietal, and orbitofrontal cortexes”. Moreover, in data set [4], the “brain activity in the NAc and other stress-associated regions” value was “significantly elevated levels of brain activity”.
`COC(=O)[C@H]1[C@@H](OC(=O)c2ccccc2)C[C@@H]2CC[C@H]1N2C` [cocaine]: the “subjects with focal positive fMRI signal changes in the right NAc, amygdala, and mPFC” value in the data set on reward circuitry [5] is at least 5.
As for `CC(Oc1c(Cl)cccc1Cl)C1=NCCN1` (stereo not shown) [lofexidine], the “effect on yohimbine's effects” value in the data set on α2 adrenoceptor is listed as “blockade of yohimbine's effects”.
For `CN1CC[C@]23c4c5ccc(O)c4O[C@H]2[C@@H](O)C=C[C@H]3[C@H]1C5` [morphine], the adverse side-effects entry in the data set with reward circuitry [6] (morphine 4 mg/70 kg total over 4 infusions, drug naive male subjects) is “No adverse side-effects”. Moreover, in the data set with reward circuitry [6] (setting [7]), the “fMRI activation in bilateral NAc and mPFC” value was “significant focal activations”; the “fMRI activation in the amygdala” value was “subthreshold activation”. In addition, the “subjective state (hedonic rating)” value in the data set with reward circuitry [6] (morphine 4 mg/70 kg total, data not shown) is listed as “mild euphoria”. Also, the “fMRI activation in the VT” value with reward circuitry [6] (morphine 4 mg/70 kg total, with cardiac gating) is reported as “left VT activation”.
